Reference: the supplement of paper PMC10307832

What was measured:
Test in all cases: relative viability (nuclei count vs DMSO), 5 days (fraction); higher = more cells survive
VE-821 + Alpelisib = compound: CS(=O)(=O)c1ccc(-c2cnc(N)c(C(=O)Nc3ccccc3)n2)cc1 [VE-821] + Cc1nc(NC(=O)N2CCC[C@H]2C(N)=O)sc1-c1ccnc(C(C)(C)C(F)(F)F)c1 [Alpelisib] (partner 2 µM)
Summary of the method: (§1)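 Lung cancer cell lines were pin-tool dosed in 1536-well plates on the day after seeding, with either a lone drug or a fixed anchor-drug dose plus five library-drug doses (not always all listed) in √10 steps. Nuclei were counted on 4× images after 5 days. Relative viability is the ratio of treated-well to vehicle-well nuclei counts, with each value a median of duplicate plates.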

Vismodegib + Trametinib = compound: CS(=O)(=O)c1ccc(C(=O)Nc2ccc(Cl)c(-c3ccccn3)c2)c(Cl)c1 [Vismodegib] + CC(=O)Nc1cccc(-n2c(=O)n(C3CC3)c(=O)c3c(Nc4ccc(I)cc4F)n(C)c(=O)c(C)c32)c1 [Trametinib] (partner 0.02 µM)
Summary of the method: as §1

Vismodegib + Olaparib = compound: CS(=O)(=O)c1ccc(C(=O)Nc2ccc(Cl)c(-c3ccccn3)c2)c(Cl)c1 [Vismodegib] + O=C(c1cc(Cc2n[nH]c(=O)c3ccccc23)ccc1F)N1CCN(C(=O)C2CC2)CC1 [Olaparib] (partner 8 µM)
Summary of the method: as §1

Ruxolitinib + Lapatinib = compound: N#CC[C@H](C1CCCC1)n1cc(-c2ncnc3[nH]ccc23)cn1 [Ruxolitinib] + CS(=O)(=O)CCNCc1ccc(-c2ccc3ncnc(Nc4ccc(OCc5cccc(F)c5)c(Cl)c4)c3c2)o1 [Lapatinib] (partner 2 µM)
Summary of the method: as §1

Row | Cell Line | relative viability (VE-821 + Alpelisib; first compound 0.08 µM) | relative viability (VE-821 + Alpelisib; first compound 0.253 µM) | relative viability (VE-821 + Alpelisib; first compound 0.8 µM) | relative viability (VE-821 + Alpelisib; first compound 2.53 µM) | relative viability (VE-821 + Alpelisib; first compound 8 µM) | relative viability (Vismodegib + Trametinib; first compound 0.08 µM) | relative viability (Vismodegib + Trametinib; first compound 0.253 µM) | relative viability (Vismodegib + Trametinib; first compound 0.8 µM) | relative viability (Vismodegib + Trametinib; first compound 2.53 µM) | relative viability (Vismodegib + Trametinib; first compound 8 µM) | relative viability (Vismodegib + Olaparib; first compound 0.08 µM) | relative viability (Vismodegib + Olaparib; first compound 0.253 µM) | relative viability (Vismodegib + Olaparib; first compound 0.8 µM) | relative viability (Vismodegib + Olaparib; first compound 2.53 µM) | relative viability (Vismodegib + Olaparib; first compound 8 µM) | relative viability (Ruxolitinib + Lapatinib; first compound 0.08 µM) | relative viability (Ruxolitinib + Lapatinib; first compound 0.253 µM) | relative viability (Ruxolitinib + Lapatinib; first compound 0.8 µM) | relative viability (Ruxolitinib + Lapatinib; first compound 2.53 µM) | relative viability (Ruxolitinib + Lapatinib; first compound 8 µM)
1 | NCI-H2085 | 1 | 0.853 | 0.713 | 0.984 | 0.922 | 0.551 | 0.549 | 0.594 | 0.621 | 0.539 | 0.724 | 0.816 | 0.775 | 0.74 | 0.712 | 0.853 | 0.67 | 1 | 0.725 | 0.806
2 | NCI-H2087 | 1.18 | 0.945 | 1.4 | 1.06 | 1.06 | 0.199 | 0.183 | 0.166 | 0.172 | 0.213 | 0.582 | 0.594 | 0.607 | 0.594 | 0.508 | 1.05 | 1.1 | 1.16 | 0.786 | 1.04
3 | NCI-H2126 | 0.757 | 0.744 | 0.625 | 0.747 | 0.645 | 0.558 | 0.519 | 0.568 | 0.58 | 0.565 | 0.887 | 0.966 | 0.928 | 0.849 | 0.969 | 0.907 | 0.776 | 0.837 | 0.874 | 0.878
4 | NCI-H2170 | 0.979 | 0.808 | 0.624 | 0.777 | 0.543 | 0.89 | 0.897 | 1 | 0.857 | 0.987 | 0.624 | 0.549 | 0.657 | 0.581 | 0.584 | 0.303 | 0.253 | 0.302 | 0.276 | 0.301
5 | NCI-H2228 | 0.7 | 0.825 | 0.683 | 0.687 | 0.737 | 0.368 | 0.42 | 0.484 | 0.417 | 0.585 | 0.596 | 0.796 | 0.56 | 0.502 | 0.477 | 0.972 | 1.17 | 1.22 | 0.82 | 0.664
6 | NCI-H2347 | 1.08 | 0.997 | 0.916 | 1.18 | 0.977 | 0.311 | 0.286 | 0.265 | 0.301 | 0.288 | 0.579 | 0.548 | 0.621 | 0.615 | 0.597 | 0.825 | 0.964 | 0.912 | 0.836 | 0.734
7 | NCI-H2405 | 0.908 | 0.808 | 0.67 | 0.984 | 0.573 | 0.671 | 0.616 | 0.592 | 0.598 | 0.638 | 0.856 | 0.909 | 0.823 | 0.833 | 0.875 | – | 1 | 1.23 | 0.879 | 0.643
